According to patent US20230114728A1 (Venatorx Pharmaceuticals, Inc., priority 2019, published 2023):
Converted amounts (≈) assume the structure as drawn.

Key:
[1] = target: T1, P. aeruginosa PBP3 (Pseudomonas aeruginosa, UniProt G3XD46); assay: Bocillin-FL fluorescence polarization competition binding assay, P. aeruginosa PBP3; conditions: fluorescence polarization competition binding assay using Bocillin-FL
T1 construct: made in house
Outline: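 Inhibitor competition with Bocillin-FL for P. aeruginosa PBP3 was followed by fluorescence polarization on a Cytation3 (BioTek) reader, using g-factor 0.96, 490 nm excitation and 520 nm emission. The enzyme was at 0.75 μM and the probe at 0.1 μM in Hepes/NaCl/glycerol buffer, 80 μl per well. FP was recorded immediately after probe addition for up to 60 minutes. Potency was expressed as EC50, the concentration that reduces bound probe by 50%.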

[2] = tested on: K. pneumoniae 848844 producing SHV-11 and KPC-2; assay: Broth microdilution MIC in CAMHB; type: cell-based; conditions: Klebsiella pneumoniae, read-out: Minimum Inhibitory Concentration, K. pneumoniae 848844
Outline: (§1)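 Standard CLSI-style microdilution in cation-adjusted Mueller Hinton broth, 2-fold dilution series, incubated 16-20 h at 37° C; endpoint was visual absence of growth.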

[3] = tested on: P. aeruginosa (ΔmexAB-oprM); assay: Broth microdilution MIC in CAMHB; type: cell-based; conditions: Pseudomonas aeruginosa, read-out: Minimum Inhibitory Concentration, P. aeruginosa ΔmexAB-OprM
Outline: as §1

[4] = tested on: K. pneumoniae UMM producing SHV-5 and KPC-2; assay: Broth microdilution MIC in CAMHB; type: cell-based; conditions: Klebsiella pneumoniae, read-out: Minimum Inhibitory Concentration, K. pneumoniae UMM
Outline: as §1

[5] = tested on: E. coli AG100A; assay: Broth microdilution MIC in CAMHB; type: cell-based; conditions: Escherichia coli, read-out: Minimum Inhibitory Concentration, E. coli AG100A
Outline: as §1

[6] = tested on: P. aeruginosa ATCC 27853; assay: Broth microdilution MIC in CAMHB; type: cell-based; conditions: Pseudomonas aeruginosa, ATCC27853; MHB; read-out: Minimum Inhibitory Concentration, P. aeruginosa ATCC 27853
Outline: as §1

[7] = tested on: E. coli ATCC 25922; assay: Broth microdilution MIC in CAMHB; type: cell-based; conditions: Escherichia coli, ATCC25922; E. coli ATCC 25922; MHB; read-out: Minimum Inhibitory Concentration, E. coli 25922
Outline: as §1

[8] = tested on: P. aeruginosa ATCC 35151; assay: Broth microdilution MIC in CAMHB; type: cell-based; conditions: Pseudomonas aeruginosa, ATCC35151; MHB; hyper-permeable strain; read-out: Minimum Inhibitory Concentration, P. aeruginosa ATCC 35151
Outline: as §1

T1 sequence (G3XD46 whole entry): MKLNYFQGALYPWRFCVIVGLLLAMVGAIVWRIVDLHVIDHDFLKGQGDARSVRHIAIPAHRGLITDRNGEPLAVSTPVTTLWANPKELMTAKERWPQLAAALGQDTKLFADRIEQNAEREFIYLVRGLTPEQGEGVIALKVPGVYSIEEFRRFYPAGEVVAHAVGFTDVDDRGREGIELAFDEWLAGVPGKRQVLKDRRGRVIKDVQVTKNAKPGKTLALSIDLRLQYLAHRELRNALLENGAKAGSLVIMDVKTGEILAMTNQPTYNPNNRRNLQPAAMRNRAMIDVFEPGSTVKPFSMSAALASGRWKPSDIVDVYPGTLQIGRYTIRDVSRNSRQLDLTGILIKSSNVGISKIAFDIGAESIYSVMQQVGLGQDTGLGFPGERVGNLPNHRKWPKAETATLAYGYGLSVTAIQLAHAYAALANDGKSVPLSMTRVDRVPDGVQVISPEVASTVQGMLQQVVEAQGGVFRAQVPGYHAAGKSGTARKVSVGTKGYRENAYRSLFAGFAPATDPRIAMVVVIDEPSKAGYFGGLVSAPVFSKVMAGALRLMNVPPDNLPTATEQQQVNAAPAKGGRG

| SMILES | P. aeruginosa PBP3 Potency [1] | MIC [2] [µg/mL] | MIC [3] [µg/mL] | MIC [4] [µg/mL] | MIC [5] [µg/mL] | MIC [6] [µg/mL] | MIC [7] [µg/mL] | MIC [8] [µg/mL] |
| --- | --- | --- | --- | --- | --- | --- | --- | --- |
| NCCN1CCN(C(=O)N[C@H](C(=O)N[C@H]2Cc3cccc(C(=O)O)c3OB2O)c2cc(F)c(O)c(F)c2F)C(=O)C1=O (single isomer, unassigned) [Example 167] | D (D represents a potency <10 μM) | > 128 | 8 to 16 (≈ 13.5 to 27 µM) | 32 to 64 (≈ 53.9 to 108 µM) | 8 to 16 (≈ 13.5 to 27 µM) | > 128 | 32 to 64 (≈ 53.9 to 108 µM) | 0.5 to 1 (≈ 0.843 to 1.69 µM) |
| NCCN1CCN(C(=O)N[C@@H](C(=O)N[C@H]2Cc3cccc(C(=O)O)c3OB2O)c2cc(F)c(O)c(F)c2F)C(=O)C1=O (single isomer, unassigned) [Example 168] | D (D represents a potency <10 μM) | 32 to 64 (≈ 53.9 to 108 µM) | 2 to 4 (≈ 3.37 to 6.74 µM) | 8 to 16 (≈ 13.5 to 27 µM) | 0.5 to 1 (≈ 0.843 to 1.69 µM) | 32 to 64 (≈ 53.9 to 108 µM) | 8 to 16 (≈ 13.5 to 27 µM) | < 0.25 |
| NCCN1CCN(C(=O)N[C@H](C(=O)N[C@H]2Cc3cccc(C(=O)O)c3OB2O)c2ccc(O)c(F)c2F)C(=O)C1=O (single isomer, unassigned) [Example 169] | C (C represents a potency between 10 and 30 μM) | > 128 | 32 to 64 (≈ 55.6 to 111 µM) | > 128 | 32 to 64 (≈ 55.6 to 111 µM) | > 128 | 8 to 16 (≈ 13.9 to 27.8 µM) | 2 to 4 (≈ 3.48 to 6.95 µM) |
| NCCN1CCN(C(=O)N[C@@H](C(=O)N[C@H]2Cc3cccc(C(=O)O)c3OB2O)c2ccc(O)c(F)c2F)C(=O)C1=O (single isomer, unassigned) [Example 170] | D (D represents a potency <10 μM) | 32 to 64 (≈ 55.6 to 111 µM) | 2 to 4 (≈ 3.48 to 6.95 µM) | 8 to 16 (≈ 13.9 to 27.8 µM) | 2 to 4 (≈ 3.48 to 6.95 µM) | 32 to 64 (≈ 55.6 to 111 µM) | 8 to 16 (≈ 13.9 to 27.8 µM) | < 0.25 |
| NS(=O)(=O)c1cccc(C(NC(=O)N2CCN(CCF)C(=O)C2=O)C(=O)N[C@H]2Cc3cccc(C(=O)O)c3OB2O)c1 (stereo partly drawn) [Example 100, (3R)-3-(2-(4-(2-fluoroethyl)-2,3-dioxopiperazine-1-carboxamido)-2-(3-sulfamoylphenyl)acetamido)-2-hydroxy-3,4-dihydro-2H-benzo[e][1,2]oxaborinine-8-carboxylic acid] | D (D represents a potency <10 μM) | 32 to 64 (≈ 52.9 to 106 µM) | 8 to 16 (≈ 13.2 to 26.4 µM) | 32 to 64 (≈ 52.9 to 106 µM) | 2 to 4 (≈ 3.3 to 6.61 µM) | > 128 | 32 to 64 (≈ 52.9 to 106 µM) | 2 to 4 (≈ 3.3 to 6.61 µM) |
| CCN1CCN(C(=O)NC(C(=O)N[C@H]2Cc3cccc(C(=O)O)c3OB2O)c2cc(Cl)c(O)cc2F)C(=O)C1=O (stereo partly drawn) [Example 101, (3R)-3-(2-(5-chloro-2-fluoro-4-hydroxyphenyl)-2-(4-ethyl-2,3-dioxopiperazine-1-carboxamido)acetamido)-2-hydroxy-3,4-dihydro-2H-benzo[e][1,2]oxaborinine-8-carboxylic acid] | D (D represents a potency <10 μM) | > 128 | 8 to 16 (≈ 13.9 to 27.7 µM) | 32 to 64 (≈ 55.5 to 111 µM) | 2 to 4 (≈ 3.47 to 6.94 µM) | > 128 | 32 to 64 (≈ 55.5 to 111 µM) | 0.5 to 1 (≈ 0.867 to 1.73 µM) |
| CCN1CCN(C(=O)NC(C(=O)N[C@H]2Cc3cccc(C(=O)O)c3OB2O)c2cc(F)c(O)cc2Cl)C(=O)C1=O (stereo partly drawn) [Example 103, (3R)-3-(2-(2-chloro-5-fluoro-4-hydroxyphenyl)-2-(4-ethyl-2,3-dioxopiperazine-1-carboxamido)acetamido)-2-hydroxy-3,4-dihydro-2H-benzo[e][1,2]oxaborinine-8-carboxylic acid] | D (D represents a potency <10 μM) | > 128 | 8 to 16 (≈ 13.9 to 27.7 µM) | 32 to 64 (≈ 55.5 to 111 µM) | 2 to 4 (≈ 3.47 to 6.94 µM) | > 128 | 32 to 64 (≈ 55.5 to 111 µM) | 2 to 4 (≈ 3.47 to 6.94 µM) |
| CCN1CCN(C(=O)NC(C(=O)N[C@H]2Cc3cccc(C(=O)O)c3OB2O)c2cc(F)c(O)cc2F)C(=O)C1=O (stereo partly drawn) [Example 104, (3R)-3-(2-(2,5-difluoro-4-hydroxyphenyl)-2-(4-ethyl-2,3-dioxopiperazine-1-carboxamido)acetamido)-2-hydroxy-3,4-dihydro-2H-benzo[e][1,2]oxaborinine-8-carboxylic acid] | D (D represents a potency <10 μM) | > 128 | 8 to 16 (≈ 14.3 to 28.6 µM) | 32 to 64 (≈ 57.1 to 114 µM) | 2 to 4 (≈ 3.57 to 7.14 µM) | > 128 | 32 to 64 (≈ 57.1 to 114 µM) | 2 to 4 (≈ 3.57 to 7.14 µM) |
| CCN1CCN(C(=O)NC(C(=O)N[C@H]2Cc3cccc(C(=O)O)c3OB2O)c2c(F)c(O)cc(O)c2F)C(=O)C1=O (stereo partly drawn) [Example 106, (3R)-3-(2-(2,6-difluoro-3,5-dihydroxyphenyl)-2-(4-ethyl-2,3-dioxopiperazine-1-carboxamido)acetamido)-2-hydroxy-3,4-dihydro-2H-benzo[e][1,2]oxaborinine-8-carboxylic acid] | D (D represents a potency <10 μM) | > 128 | 8 to 16 (≈ 13.9 to 27.8 µM) | > 128 | 32 to 64 (≈ 55.5 to 111 µM) | > 128 | > 128 | 2 to 4 (≈ 3.47 to 6.94 µM) |
| CCN1CCN(C(=O)NC(C(=O)N[C@H]2Cc3cccc(C(=O)O)c3OB2O)c2cccc(CNS(N)(=O)=O)c2)C(=O)C1=O (stereo partly drawn) [Example 107, (3R)-3-(2-(4-ethyl-2,3-dioxopiperazine-1-carboxamido)-2-(3-((sulfamoylamino)methyl)phenyl)acetamido)-2-hydroxy-3,4-dihydro-2H-benzo[e][1,2]oxaborinine-8-carboxylic acid] | D (D represents a potency <10 μM) | > 128 | 8 to 16 (≈ 13 to 26 µM) | > 128 | 2 to 4 (≈ 3.24 to 6.49 µM) | > 128 | 32 to 64 (≈ 51.9 to 104 µM) | 8 to 16 (≈ 13 to 26 µM) |
| CCN1CCN(C(=O)NC(C(=O)N[C@H]2Cc3cccc(C(=O)O)c3OB2O)c2cccc(CN)c2)C(=O)C1=O (stereo partly drawn) [Example 108, (3R)-3-(2-(3-(aminomethyl)phenyl)-2-(4-ethyl-2,3-dioxopiperazine-1-carboxamido)acetamido)-2-hydroxy-3,4-dihydro-2H-benzo[e][1,2]oxaborinine-8-carboxylic acid] | B (B represents a potency between 30 μM and 500 μM inclusive) | > 128 | 32 to 64 (≈ 59.6 to 119 µM) | 32 to 64 (≈ 59.6 to 119 µM) | 2 to 4 (≈ 3.72 to 7.44 µM) | > 128 | 8 to 16 (≈ 14.9 to 29.8 µM) | 8 to 16 (≈ 14.9 to 29.8 µM) |
| NCCN1CCN(C(=O)NC(C(=O)N[C@H]2Cc3cccc(C(=O)O)c3OB2O)c2cc(F)c(O)cc2Cl)C(=O)C1=O (stereo partly drawn) [Example 109, (3R)-3-(2-(4-(2-aminoethyl)-2,3-dioxopiperazine-1-carboxamido)-2-(2-chloro-5-fluoro-4-hydroxyphenyl)acetamido)-2-hydroxy-3,4-dihydro-2H-benzo[e][1,2]oxaborinine-8-carboxylic acid] | D (D represents a potency <10 μM) | > 128 | 8 to 16 (≈ 13.5 to 27 µM) | 32 to 64 (≈ 54.1 to 108 µM) | 8 to 16 (≈ 13.5 to 27 µM) | > 128 | 32 to 64 (≈ 54.1 to 108 µM) | 2 to 4 (≈ 3.38 to 6.76 µM) |
| CCN1CCN(C(=O)NC(C(=O)N[C@H]2Cc3cccc(C(=O)O)c3OB2O)c2cncc(O)c2)C(=O)C1=O (stereo partly drawn) [Example 112, (3R)-3-(2-(4-ethyl-2,3-dioxopiperazine-1-carboxamido)-2-(5-hydroxypyridin-3-yl)acetamido)-2-hydroxy-3,4-dihydro-2H-benzo[e][1,2]oxaborinine-8-carboxylic acid] | D (D represents a potency <10 μM) | > 128 | 8 to 16 (≈ 15.2 to 30.5 µM) | 32 to 64 (≈ 60.9 to 122 µM) | 2 to 4 (≈ 3.81 to 7.61 µM) | > 128 | 32 to 64 (≈ 60.9 to 122 µM) | 2 to 4 (≈ 3.81 to 7.61 µM) |
| CCN1CCN(C(=O)NC(C(=O)N[C@H]2Cc3cccc(C(=O)O)c3OB2O)c2cccc(C(=O)O)c2)C(=O)C1=O (stereo partly drawn) [Example 113, (3R)-3-(2-(3-carboxyphenyl)-2-(4-ethyl-2,3-dioxopiperazine-1-carboxamido)acetamido)-2-hydroxy-3,4-dihydro-2H-benzo[e][1,2]oxaborinine-8-carboxylic acid] | D (D represents a potency <10 μM) | > 128 | 8 to 16 (≈ 14.5 to 29 µM) | 32 to 64 (≈ 57.9 to 116 µM) | 2 to 4 (≈ 3.62 to 7.24 µM) | > 128 | 32 to 64 (≈ 57.9 to 116 µM) | 0.5 to 1 (≈ 0.905 to 1.81 µM) |
| NS(=O)(=O)Nc1cccc(C(NC(=O)N2CCN(CCF)C(=O)C2=O)C(=O)N[C@H]2Cc3cccc(C(=O)O)c3OB2O)c1 (stereo partly drawn) [Example 116, (3R)-3-(2-(4-(2-fluoroethyl)-2,3-dioxopiperazine-1-carboxamido)-2-(3-(sulfamoylamino)phenyl)acetamido)-2-hydroxy-3,4-dihydro-2H-benzo[e][1,2]oxaborinine-8-carboxylic acid] | D (D represents a potency <10 μM) | > 128 | 8 to 16 (≈ 12.9 to 25.8 µM) | 32 to 64 (≈ 51.6 to 103 µM) | 2 to 4 (≈ 3.22 to 6.45 µM) | > 128 | 8 to 16 (≈ 12.9 to 25.8 µM) | 0.5 to 1 (≈ 0.806 to 1.61 µM) |
